{"source": "patent US11684614B2", "about": "“Formulations of hydroxypyridonate actinide/lanthanide decorporation agents” (priority 2017, dated 2023)", "key": {"[1]": {"experiment": "Radiolabeled in vivo ADME study in rats (with metabolite profiling)", "set-up": "species or system Sprague Dawley rats", "from_the_text": "Formulated material was used in the single dose in vivo ADME characterization studies in Sprague Dawley rats and Swiss-Webster mice with 14C-labeled 3,4,3-L1(1,2-HOPO).\nPharmacokinetic parameters and disposition/biodistribution of 3,4,3-L1(1,2-HOPO) were characterized in vivo (with the aid of two 14C labels on the spermine backbone of the parent product) in two non-GLP studies using Swiss-Webster mice and Sprague Dawley rats. The study designs for these two studies are shown in TABLE 5.1 and TABLE 5.2, respectively. Groups of six mice (3 male, 3 female) were given a single dose of [14C]-3,4,3-L1(1,2-HOPO) via iv, ip, or po routes, respectively. An additional group of six mice (3 male, 3 female) were administered the 14C-labeled API with permeability enhancer (10% sodium oleate) by oral gavage (po). Similarly, groups of six rats (3 male, 3 female) were administered a single iv dose of the 14C-labeled API or a single po dose of the 14C-labeled API with 10% sodium oleate. In each of these studies, samples were collected at scheduled time points up to 24 hr post-dose and analyzed for 14C content using liquid scintillation counting. Blood, liver, kidney, feces and urine were collected and analyzed from the mice. Blood, brain, liver, kidney, lungs, spleen, skeletal muscle tissues, gastrointestinal (GI) tract samples, carcasses, feces, and urine were collected and analyzed from the rats.\nThe principal excretion routes of radioactivity from [14C]-3,4,3-L1(1,2-HOPO) were both the feces and urine after an iv dose based on high levels of radioactivity in both feces and urine as well as significant radioactivity in the excretory tissues, kidney, liver and GI tract. Fecal elimination by 24 hr post-dose accounted for approximately 62% and 16% of the iv administered dose in mice and rats, respectively. Urinary excretion accounted for approximately 12-23% of the iv administered dose in these rodents with renal excretion of 14C beginning as early as 5 min after iv injection in mice. In contrast, following oral administration, excretion was primarily by the fecal route accounting for approximately 89% and 41% of the orally administered dose in mice and rats, respectively, by 24 h post-dose. Urinary excretion accounted for <1% of the orally administered dose and low radioactivity levels were detected in systemic circulation and in tissues except for the GI tract. […] Based on the colonic transit time in rats of 15.5 hr, 11 the radioactivity found in the feces in the first 24 hr after po administration is most likely unabsorbed compound. […] Metabolite profiling of [14C]-3,4,3-L1(1,2-HOPO) was performed using an HPLC method on selected urine, feces, kidney, liver, and lung samples from the Sprague Dawley rat. Only samples containing the highest total radioactive levels were selected for analysis. A total of 11 peaks were detected, of which 6 were from uncharacterized interactions between the test article and matrix components because they were also seen in spiked blank matrix controls. These 6 peaks are not metabolites and are considered alternate forms of the parent compound (e.g. complexes of the test article with metallic ions). The 5 other radioactive species (peaks P1-P4 and P10) are considered potential metabolites. Feces-specific metabolite peaks P2, P3, and P10 represented a combined 10.5-11.4% and 0.5-4.2% of the administered dose after po or iv administration, respectively, in rats. Peak P10 was the most abundant peak in all samples analyzed. It represented up to 10% of the administered dose in feces after po administration while the other two feces-specific peaks represented <1% of the administered dose after po administration. Peak P10 was also the predominant, and sometimes the only, peak in feces samples after iv administration. […]"}, "CYP3A4": {"target": "CYP3A4 (Homo sapiens, UniProt P08684)", "sequence (P08684 whole entry)": "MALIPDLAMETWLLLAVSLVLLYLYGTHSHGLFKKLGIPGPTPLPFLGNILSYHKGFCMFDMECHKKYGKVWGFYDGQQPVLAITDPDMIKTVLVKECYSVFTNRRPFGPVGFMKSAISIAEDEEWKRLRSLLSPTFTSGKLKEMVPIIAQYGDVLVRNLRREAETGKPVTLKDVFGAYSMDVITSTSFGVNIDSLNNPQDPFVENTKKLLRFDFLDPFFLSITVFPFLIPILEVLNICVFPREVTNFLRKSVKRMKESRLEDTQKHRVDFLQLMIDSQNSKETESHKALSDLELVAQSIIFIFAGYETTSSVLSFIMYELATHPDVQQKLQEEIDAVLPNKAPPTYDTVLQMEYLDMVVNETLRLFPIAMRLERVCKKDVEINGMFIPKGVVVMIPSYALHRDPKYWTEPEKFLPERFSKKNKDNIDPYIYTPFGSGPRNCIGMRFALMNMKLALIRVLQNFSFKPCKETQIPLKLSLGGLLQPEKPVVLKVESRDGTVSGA", "experiment": "CYP inhibition", "format": "in vitro ADME"}}, "data": [{"smiles": "O=C(NCCCN(CCCCN(CCCNC(=O)c1cccc(=O)n1O)C(=O)c1cccc(=O)n1O)C(=O)c1cccc(=O)n1O)c1cccc(=O)n1O", "note": "[3,4,3-L1(1,2-HOPO)]", "values": [{"measurement": "oral bioavailability (F) of radioactive compound", "setting": "[1]; female rats", "result": 1.1, "unit": "%"}, {"measurement": "oral bioavailability (F) of radioactive compound", "setting": "[1]; male rats", "result": 0.4, "unit": "%"}, {"measurement": "mean t½", "setting": "[1]; oral administration, rats", "result": "~60", "unit": "min"}, {"measurement": "Tmax", "setting": "[1]; oral dose, rodents (rats)", "result": "~42", "unit": "min"}, {"measurement": "inhibition of CYP3A4 activity", "setting": "CYP3A4", "result": "did not inhibit"}]}]}
